Laboratory results taken from US7645752B2, “Sulfonyl substituted 1H-indoles as ligands for the 5-hydroxytryptamine receptors” (Wyeth LLC, priority 2006, dated 2010).
Where two headings read alike, the source gives them in different places.

Target: T1, human cloned 5-HT6 receptors (Homo sapiens, UniProt P50406)
T1 construct: expressed in transfected cells; host or cells: HeLa cells
Assay: 5-HT6 binding affinity, [3H]-LSD displacement on membranes of Hela cells
Conditions: for inhibition at 1 µM: read-out: % inhibition at 1 micromole
Protocol: The affinity of test compounds for the 5-HT6 receptor is evaluated in the following manner. Cultured Hela cells expressing human cloned 5-HT6 receptors are harvested and centrifuged at low speed (1,000×g) for 10.0 min to remove the culture media. The harvested cells are suspended in half volume of fresh physiological phosphate buffered saline solution and recentrifuged at the same speed. This operation is repeated. The collected cells are then homogenized in ten volumes of 50 mM Tris.HCl (pH 7.4) and 0.5 mM EDTA. The homogenate is centrifuged at 40,000×g for 30.0 min and the precipitate is collected. The obtained pellet is resuspended in 10 volumes of Tris.HCl buffer and recentrifuged at the same speed. The final pellet is suspended in a small volume of Tris.HCl buffer and the tissue protein content is determined in aliquots of 10-25 microliter volumes. […] The volume of the suspended cell membranes is adjusted to give a tissue protein concentration of 1.0 mg/mL of suspension. The prepared membrane suspension (10 times concentrated) is aliquoted in 1.0 mL volumes and stored at −70° C. until used in subsequent binding experiments.
Binding experiments are performed in a 96 well microtiter plate format in a total volume of 200 microliters. […] The test compounds are added in 20.0 microliter volume.
The bound complex caught on the filter disk is allowed to air dry and the radioactivity is measured in a Packard TopCount® equipped with six photomultiplier detectors, after the addition of 40.0 microliter Microscint®-20 scintillant to each shallow well.
Binding in the presence of varying concentrations of test compound is expressed as a percentage of specific binding in the absence of test compound. The results are plotted as log % bound versus log concentration of the test compound.

[1] = Table 1, 5-HT6 binding, at 1 micromole
[2] = Table 1, [3H]-LSD 3.0 nM, Hela cell membranes, read-out: Ki (nM) @ 5-HT6 receptor

T1 sequence (P50406 whole entry): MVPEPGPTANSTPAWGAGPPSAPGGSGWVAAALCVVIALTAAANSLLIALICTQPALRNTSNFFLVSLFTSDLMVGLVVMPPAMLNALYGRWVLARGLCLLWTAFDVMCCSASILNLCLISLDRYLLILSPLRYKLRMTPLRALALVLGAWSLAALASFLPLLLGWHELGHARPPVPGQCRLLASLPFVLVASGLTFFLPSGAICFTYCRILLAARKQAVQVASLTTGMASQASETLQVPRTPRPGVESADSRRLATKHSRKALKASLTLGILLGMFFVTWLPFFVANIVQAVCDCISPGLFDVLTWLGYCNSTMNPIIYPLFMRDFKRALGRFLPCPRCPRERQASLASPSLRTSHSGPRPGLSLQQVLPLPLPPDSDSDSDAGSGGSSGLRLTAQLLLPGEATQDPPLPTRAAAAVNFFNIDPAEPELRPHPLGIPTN

inhibition at 1 µM [1] [%]	Ki [2] [nM]	Compound	other results
–	–	CN(C)CCc1cccc2[nH]cc(S(=O)(=O)c3cccc(F)c3)c12 [Example 62, N,N-dimethyl-N-{2-[3-(3-fluorophenylsulfonyl)-1H-indol-4-yl]ethyl}amine]	inhibition at 1 µM: 72%
76	–	O=S(=O)(c1ccccc1)c1c[nH]c2cc(CCN3CCCC3)ccc12 [Example 98, 3-(phenylsulfonyl)-6-(2-pyrrolidin-1-ylethyl)-1H-indole]	–
–	7.5	O=S(=O)(c1ccccc1)c1c[nH]c2c(CCN3CCNCC3)cccc12 [Example 30, 3-(phenylsulfonyl)-7-(2-piperazin-1-ylethyl)-1H-indole]	–
69	–	O=S(=O)(c1cccc(F)c1)c1c[nH]c2cccc(CCN3CCCCC3)c12 [Example 75, 3-(3-fluorophenylsulfonyl)-4-(2-piperidin-1-ylethyl)-1H-indole]	–
–	120	CCC(C)CNCCc1cccc2[nH]cc(S(=O)(=O)c3cccc(F)c3)c12 (stereo not drawn) [Example 79, {2-[3-(3-Fluorophenylsulfonyl)-1H-indol-4-yl]-ethyl}-(2-methyl-butyl)-amine]	–
–	17	CCN(CC)CCc1ccc2[nH]cc(S(=O)(=O)c3ccccc3)c2c1 [Example 8, N,N-diethyl-N-{2-[3-(phenylsulfonyl)-1H-indol-5-yl]ethyl}amine]	–
–	23.5	O=S(=O)(c1cccc(F)c1)c1c[nH]c2cccc(CCNC3CCC3)c12 [Example 68, N-{2-[3-(3-fluorophenylsulfonyl)-1H-indol-4-yl]ethyl}cyclobutanamine]	–
67	–	CC(C)(C)CNCCc1ccc2c(S(=O)(=O)c3ccccc3)c[nH]c2c1 [Example 106, N-(2,2-dimethylpropyl)-N-{2-[3-(phenylsulfonyl)-1H-indol-6-yl]ethyl}amine]	–
–	80	CCC(CC)NCCc1cccc2[nH]cc(S(=O)(=O)c3cccc(F)c3)c12 [Example 78, (1-Ethyl-propyl)-{2-[3-(3-fluorophenylsulfonyl)-1H-indol-4-yl]-ethyl}-amine]	–
67	–	CCCNCCc1cccc2[nH]cc(S(=O)(=O)c3cccc(F)c3)c12 [Example 65, N-{2-[3-(3-fluorophenylsulfonyl)-1H-indol-4-yl]ethyl}-N-propylamine]	–
–	37	O=S(=O)(c1ccccc1)c1c[nH]c2ccc(CCNC3CCCC3)cc12 [Example 5, N-{2-[3-(phenylsulfonyl)-1H-indol-5-yl]ethyl}cyclopentanamine]	–
71	–	O=S(=O)(c1ccccc1)c1c[nH]c2cc(CCNC3CCCC3)ccc12 [Example 93, N-{2-[3-(phenylsulfonyl)-1H-indol-6-yl]ethyl}cyclopentanamine]	–
57	–	CCNCCc1cccc2[nH]cc(S(=O)(=O)c3cccc(F)c3)c12 [Example 64, N-ethyl-N-{2-[3-(3-fluorophenylsulfonyl)-1H-indol-4-yl]ethyl}amine]	–
–	85	O=S(=O)(c1ccccc1)c1c[nH]c2cc(CCNCC3CCCO3)ccc12 (stereo not drawn) [Example 107, N-{2-[3-(phenylsulfonyl)-1H-indol-6-yl]ethyl}-N-((tetrahydrofur-2-yl)methyl)amine]	–
55	–	CC(NCCc1ccc2c(S(=O)(=O)c3ccccc3)c[nH]c2c1)C(C)(C)C (stereo not drawn) [Example 105, N-{2-[3-(phenylsulfonyl)-1H-indol-6-yl]ethyl}-N-(1,2,2-trimethylpropyl)amine]	–
–	10	NCCc1ccc2c(S(=O)(=O)c3ccccc3)c[nH]c2c1 [Example 109, {2-[3-(phenylsulfonyl)-1H-indol-6-yl]ethyl}amine]	–
–	348	NCCc1cccc2[nH]cc(S(=O)(=O)c3cccc(F)c3)c12 [Example 85, {2-[3-(3-fluorophenylsulfonyl)-1H-indol-4-yl]ethyl}amine]	–
–	7	CCN(C)CCc1ccc2[nH]cc(S(=O)(=O)c3ccccc3)c2c1 [Example 7, N-ethyl-N-methyl-N-{2-[3-(phenylsulfonyl)-1H-indol-5-yl]ethyl}amine]	–
–	116	CCN(C)CCc1cccc2[nH]cc(S(=O)(=O)c3cccc(F)c3)c12 [Example 71, N-ethyl-N-methyl-N-{2-[3-(3-fluorophenylsulfonyl)-1H-indol-4-yl]ethyl}amine]	–
–	41.3	CN(C)CCc1ccc2c(S(=O)(=O)c3ccccc3)c[nH]c2c1 [Example 86, N,N-dimethyl-N-{2-[3-(phenylsulfonyl)-1H-indol-6-yl]ethyl}amine]	–
–	–	O=S(=O)(c1ccccc1)c1c[nH]c2c(CCNC3CC3)cccc12 [Example 22, N-{2-[3-(phenylsulfonyl)-1H-indol-7-yl]ethyl}cyclopropanamine]	Ki: 5.5 nM

inhibition at 1 µM [1] [%]	Ki [2] [nM]	Compound	other results
–	118	CCN(C)CCc1ccc2c(S(=O)(=O)c3ccccc3)c[nH]c2c1 [Example 95, N-ethyl-N-methyl-N-{2-[3-(phenylsulfonyl)-1H-indol-6-yl]ethyl}amine]	–
78	–	CC(C)NCCc1ccc2c(S(=O)(=O)c3ccccc3)c[nH]c2c1 [Example 90, N-{2-[3-(phenylsulfonyl)-1H-indol-6-yl]ethyl}propan-2-amine]	–
–	–	CCNCCc1ccc2c(S(=O)(=O)c3ccccc3)c[nH]c2c1 [Example 88, N-ethyl-N-{2-[3-(phenylsulfonyl)-1H-indol-6-yl]ethyl}amine]	Ki: 96.3 nM
79	–	O=S(=O)(c1ccccc1)c1c[nH]c2cc(CCN3CCCCC3)ccc12 [Example 99, 3-(phenylsulfonyl)-6-(2-piperidin-1-ylethyl)-1H-indole]	–
–	180	O=S(=O)(c1cccc(F)c1)c1c[nH]c2cccc(CCNC3CCCCC3)c12 [Example 70, N-{2-[3-(3-fluorophenylsulfonyl)-1H-indol-4-yl]ethyl}cyclohexanamine]	–
–	13	CC(NCCc1cccc2[nH]cc(S(=O)(=O)c3cccc(F)c3)c12)C(C)(C)C (stereo not drawn) [Example 80, N-{2-[3-(3-fluorophenylsulfonyl)-1H-indol-4-yl]ethyl}-N-(1,2,2-trimethylpropyl)amine]	–
–	1.5	NCCc1cccc2c(S(=O)(=O)c3ccccc3)c[nH]c12 [Example 29, {2-[3-(phenylsulfonyl)-1H-indol-7-yl]ethyl}amine]	–
–	78	O=S(=O)(c1cccc(F)c1)c1c[nH]c2cccc(CCNC3CCCC3)c12 [Example 69, N-{2-[3-(3-fluorophenylsulfonyl)-1H-indol-4-yl]ethyl}cyclopentanamine]	–
–	–	CC(C)NCCc1ccc2[nH]cc(S(=O)(=O)c3ccccc3)c2c1 [Example 3, N-{2-[3-(phenylsulfonyl)-1H-indol-5-yl]ethyl}propan-2-amine]	Ki: 56.7 nM
54	–	O=S(=O)(c1ccccc1)c1c[nH]c2cccc(CCC3CNCCO3)c12 (stereo not drawn) [Example 100, 4-(2-morpholin-6-ylethyl)-3-(phenylsulfonyl)-1H-indole]	–
–	18	O=S(=O)(c1ccccc1)c1c[nH]c2c(CCN3CCCC3)cccc12 [Example 26, 3-(phenylsulfonyl)-7-(2-pyrrolidin-1-ylethyl)-1H-indole]	–
77	–	O=S(=O)(c1cccc(F)c1)c1c[nH]c2cccc(CCNC3CC3)c12 [Example 67, N-{2-[3-(3-fluorophenylsulfonyl)-1H-indol-4-yl]ethyl}cyclopropanamine]	–
–	–	NCCc1ccc2[nH]cc(S(=O)(=O)c3ccccc3)c2c1 [Example 12, {2-[3-(phenylsulfonyl)-1H-indol-5-yl]ethyl}amine]	Ki: 7 nM
–	41	O=S(=O)(c1ccccc1)c1c[nH]c2cc(CCNC3CC3)ccc12 [Example 91, N-{2-[3-(phenylsulfonyl)-1H-indol-6-yl]ethyl}cyclopropanamine]	–
74	–	CC(C)(C)CNCCc1cccc2[nH]cc(S(=O)(=O)c3cccc(F)c3)c12 [Example 81, N-(2,2-dimethylpropyl)-N-{2-[3-(3-fluorophenylsulfonyl)-1H-indol-4-yl]ethyl}amine]	–
75	–	O=S(=O)(c1ccccc1)c1c[nH]c2cc(CCNC3CCC3)ccc12 [Example 92, N-{2-[3-(phenylsulfonyl)-1H-indol-6-yl]ethyl}cyclobutanamine]	–
66	–	CN(CCc1cccc2[nH]cc(S(=O)(=O)c3cccc(F)c3)c12)C1CCCCC1 [Example 72, N-cyclohexyl-N-methyl-N-{2-[3-(3-fluorophenylsulfonyl)-1H-indol-4-yl]ethyl}amine]	–
58	–	CC(C)NCCc1cccc2[nH]cc(S(=O)(=O)c3cccc(F)c3)c12 [Example 66, N-{2-[3-(3-fluorophenylsulfonyl)-1H-indol-4-yl]ethyl}propan-2-amine]	–
51	–	O=S(=O)(c1ccccc1)c1c[nH]c2cc(CCNC3CCCCC3)ccc12 [Example 94, N-{2-[3-(phenylsulfonyl)-1H-indol-6-yl]ethyl}cyclohexanamine]	–
78	–	CCN(CC)CCc1cccc2[nH]cc(S(=O)(=O)c3cccc(F)c3)c12 [Example 73, N,N-diethyl-N-{2-[3-(3-fluorophenylsulfonyl)-1H-indol-4-yl]ethyl}amine]	–
–	74	O=S(=O)(c1ccccc1)c1c[nH]c2cc(CCN3CCC3)ccc12 [Example 108, 6-(2-Azetidin-1-yl-ethyl)-3-phenylsulfonyl-1H-indole]	–
